The results in this text go back to PMC3489957 (Bioorganic & medicinal chemistry, 2012).

Structures are written as SMILES.

A short description of data set [1]: Cytotoxicity in Vero cells. The data set is classed as cell-based. Particulars: African green monkey, Vero kidney cells.
Another data set is described as follows: in vitro. Particulars: human, lymphocytic CEM cells.
Data set [2] can be described thus: Cytotoxicity in uninfected PHA-stimulated human PBM cells. The settings on record: uninfected phytohemagglutinin-stimulated PBM cells. The data set is classed as cell-based.

For orientation: IC50 means the point on the concentration scale where inhibition reaches its midpoint. Higher therefore signals weaker potency. On to `CC(C)(C)OC(=O)N1[C@H](CO)CC(F)(F)[C@H]1n1ccc(=O)[nH]c1=O` [Analogue 18a, 1-[(2S,5S)-N-tert-Butyloxycarbonyl-3,3-difluoro-5-(hydroxymethyl)pyrrolidin-2-yl]-uracil], for which the IC50 (in data set [1]; in “in vitro”) was greater than 100 µM each time.

Consider `CC(C)(C)OC(=O)N1[C@H](CO)CC(F)(F)[C@H]1n1cc(F)c(=O)[nH]c1=O` [Analogue 18d, 1-[(2S,5S)-N-tert-Butyloxycarbonyl-3,3-difluoro-5-(hydroxymethyl)pyrrolidin-2-yl]-5-fluorouracil], for which the concentration for half-maximal inhibition (IC50) (in data set [1]; in “in vitro”) was greater than 100 µM each time.

The compound `CC(C)(C)OC(=O)N1[C@H](CO)CC(F)(F)[C@@H]1n1ccc(=O)[nH]c1=O` [Analogue 19a, 1-[(2R,5S)-N-tert-butyloxycarbonyl-3,3-difluoro-5-(hydroxymethyl)pyrrolidin-2-yl]-uracil] registered an IC50 in “in vitro” greater than 100 µM.

Take `CC(C)(C)OC(=O)N1[C@H](CO)CC(F)(F)[C@@H]1n1cc(F)c(=O)[nH]c1=O` [Analogue 19d, 1-[(2R,5S)-N-tert-Butyloxycarbonyl-3,3-difluoro-5-(hydroxymethyl)pyrrolidin-2-yl]-5-fluorouracil]: the IC50 (in data set [1]; in the data set “in vitro”) was greater than 100 µM throughout.

For `CC(C)(C)OC(=O)N1[C@H](CO)CC(F)(F)[C@@H]1n1cnc2c(Cl)ncnc21` [Analogue 26, 9-[(2R,5S)-N-tert-Butyloxycarbonyl-3,3-difluoro-5-(hydroxymethyl)pyrrolidin-2-yl]-6-chloropurine], in data set [1], the IC50 was greater than 100 µM.

Consider `CC(C)(C)OC(=O)N1[C@H](CO)CC(F)(F)[C@H]1n1cnc2c(Cl)ncnc21` [Analogue 27, 9-[(2S,5S)-N-tert-Butyloxycarbonyl-3,3-difluoro-5-(hydroxymethyl)pyrrolidin-2-yl]-6-chloropurine], for which the IC50 in data set [1] was greater than 100 µM.

Consider `CC(C)(C)OC(=O)N1[C@H](CO)CC(F)(F)[C@@H]1n1cnc2ncnc(Cl)c21` [Analogue 28, 7-[(2R,5S)-N-tert-Butyloxycarbonyl-3,3-difluoro-5-(hydroxymethyl)pyrrolidin-2-yl]-6-chloropurine], for which, in data set [1], the IC50 was greater than 100 µM.

Regarding `CC(C)(C)OC(=O)N1[C@H](CO)CC(F)(F)[C@H]1n1cnc2ncnc(Cl)c21` [Analogue 29, 7-[(2S,5S)-N-tert-Butyloxycarbonyl-3,3-difluoro-5-(hydroxymethyl)pyrrolidin-2-yl]-6-chloropurine], the IC50 in data set [1] was greater than 100 µM.

`CC(C)(C)OC(=O)N1[C@H](CO)CC(F)(F)[C@@H]1n1cnc2c(N)ncnc21` [Analogue 30, 9-[(2R,5S)-N-tert-Butyloxycarbonyl-3,3-difluoro-5-(hydroxymethyl)pyrrolidin-2-yl]-adenine]: the IC50 (in data set [2]; in data set [1]; in the data set “in vitro”) was greater than 100 µM each time.

Take `CC(C)(C)OC(=O)N1[C@H](CO)CC(F)(F)[C@H]1n1cnc2c(N)ncnc21` [Analogue 31, 9-[(2S,5S)-N-tert-Butyloxycarbonyl-3,3-difluoro-5-(hydroxymethyl)pyrrolidin-2-yl]-adenine]: the IC50 (in data set [2]; in data set [1]; in the data set “in vitro”) was greater than 100 µM each time.

For the compound `CC(C)(C)OC(=O)N1[C@H](CO)CC(F)(F)[C@@H]1n1cnc2ncnc(N)c21` [Analogue 32, 7-[(2R,5S)-N-tert-Butyloxycarbonyl-3,3-difluoro-5-(hydroxymethyl)pyrrolidin-2-yl]-adenine], the concentration for half-maximal inhibition (IC50) (in data set [2]; in data set [1]; in “in vitro”) was greater than 100 µM in each case.

Regarding `CC(C)(C)OC(=O)N1[C@H](CO)CC(F)(F)[C@H]1n1cnc2ncnc(N)c21` [Analogue 33, 7-[(2S,5S)-N-tert-Butyloxycarbonyl-3,3-difluoro-5-(hydroxymethyl)pyrrolidin-2-yl]-adenine], the IC50 (in data set [2]; in data set [1]; in the data set “in vitro”) was greater than 100 µM in each case.
